Like-named read-outs stand apart in the source and are kept apart here. A value given as a limit tells only on which side of the number the result lay.

This note sets out measurements from patent US11274124B2, “Tubulysin analogues as anticancer agents and payloads for antibody-drug conjugates and methods of treatment therewith” (William Marsh Rice University, priority 2017, dated 2022).

Data set [1] relates to HEK 293T (human embryonic kidney cancer cell line). In words: In vitro cytotoxicity assay (CellTiter-Glo, 72 hours), HEK 293T. The data set is classed as cell-based. A general note: Cellular ATP, detected with luciferase, serves as a proxy for viable cell number.
The subject of data set [2] is MES SA (uterine sarcoma cell line). In words: In vitro cytotoxicity assay (CellTiter-Glo, 72 hours), MES SA. The data set is classed as cell-based.
Data set [3] concerns MES SA DX (MES SA cell line with marked multi-drug resistance). In words: In vitro cytotoxicity assay (CellTiter-Glo, 72 hours), MES SA DX.
The mark [4] stands for this setting: Homo sapiens, HEK-293T, 72 h, read-out: HEK 293T, IC50.
[5] abbreviates: Homo sapiens, HEK-293T, 72 h, read-out: HEK 293T, IC50 Value in nM.
Where [6] appears, read: Homo sapiens, MES-SA, 72 h, read-out: MES SA, IC50.
[7] abbreviates: Homo sapiens, MES-SA, 72 h, read-out: MES SA, IC50 Value in nM.
Where [8] appears, read: Homo sapiens, MES-SA, 72 h, read-out: MES SA DX, IC50.
Where [9] appears, read: Homo sapiens, MES-SA, 72 h, read-out: MES SA DX, IC50 Value in nM.

For orientation: IC50 means the concentration at which inhibition is half-maximal. `CCOC(=O)C(C)CC(Cc1ccccc1)NC(=O)c1nc([C@@H](CC(C(C)C)N(C)C(=O)[C@@H](NC(=O)[C@H]2CCCCN2C)C(C)C)OC(C)=O)sc1CCO` (stereo in doubt) [Tb112, Ethyl (2R,4S)-4-[({2-[(1R,3S)-1-acetoxy-4-methyl-3-{methyl[(2S)-3-methyl-2-{[(1-methylpiperidin-2-yl)carbonyl]amino}butanoyl]amino}pentyl]-5-(2-hydroxyethyl)-1,3-thiazol-4-yl}carbonyl)amino]-2-methyl-5-phenylpentanoate]: the IC50 in data set [1] (setting [4]) was 0.09 nM; in data set [1] (setting [5]) it was 0.09 nM; in data set [2] (setting [6]) it was 0.1 nM; in data set [2] (setting [7]), 0.1 nM; in data set [3] (setting [8]) it was over 400 nM; in data set [3] (setting [9]), over 400 nM.

Regarding `CC(C)[C@@H](C[C@@H](O)c1nc(C(=O)N[C@@H](Cc2ccccc2)C[C@H](C)C(=O)O)cs1)N(C)C(=O)[C@H](CC(F)(F)F)NC(=O)[C@H]1CCCN1C` [Tb84, (2S,4R)-4-[({2-[(1R,3R)-1-Hydroxy-4-methyl-3-{methyl[(2S)-4,4,4-trifluoro-2-({[(2R)-1-methyl-pyrrolidin-2-yl]carbonyl}amino)butanoyl]amino}pentyl]-1,3-thiazol-4-yl}carbonyl)amino]-2-meth-yl-5-phenylpentanoic acid], the IC50 in data set [1] (setting [5]), in data set [2] (setting [7]) and in data set [3] (setting [9]) was over 1000 nM throughout.

Consider `CC(=O)O[C@H](C[C@H](C(C)C)N(C)C(=O)[C@@H](NC(=O)[C@H]1CCCCN1C)C(C)C)c1nc(C(=O)N[C@@H](Cc2ccccc2)CC2C(=O)OC(C)(C)OC2=O)cs1` [Tb114, 1-(4-{[1-(2,2-Dimethyl-4,6-dioxo-1,3-dioxan-5-yl)-3-phenylpropan-2-yl]carbamoyl}-1,3-thiazol-2-yl)-4-methyl-3-[methyl(3-methyl-2-{[(1-methylpiperidin-2-yl)carbonyl]amino}butanoyl)amino]-pentyl acetate], for which the figures for the IC50 in data set [1] (setting [5]), in data set [2] (setting [7]) and in data set [3] (setting [9]) were 0.524 nM, 1.23 nM and over 400 nM, respectively.

Consider `CC(=O)O[C@H](C[C@H](C(C)C)N(C)C(=O)[C@@H](NC(=O)[C@H]1CCCCN1C)C(C)C)c1nc(C(=O)NC(Cc2ccccc2)C[C@H](C)C(=O)O)c(CCOCc2ccccc2)s1` (stereo in doubt) [Tb111, (2S,4S)-4-[({2-[(1R,3R)-1-acetoxy-4-methyl-3-{methyl[(2S)-3-methyl-2-{[(1-methylpiperidin-2-yl)carbonyl]amino}butanoyl]amino}pentyl]-5-[2-(benzyloxy)ethyl]-1,3-thiazol-4-yl}carbonyl)-amino]-2-methyl-5-phenylpentanoic acid], for which the IC50 in data set [1] (setting [4]) was 0.006 nM; in data set [1] (setting [5]) it was 0.006 nM; in data set [2] (setting [6]), 0.04 nM; in data set [2] (setting [7]), 0.04 nM; in data set [3] (setting [8]) it was 1.54 nM; in data set [3] (setting [9]) it was 1.54 nM. The “cytotoxicities against the marked drug resistant cancer cell line MES SA DX (in words)” value (“cytotoxicities” for short) in data set [3] is reported as “relatively potent (low nanomolar)”.

Take `CC[C@H](C)[C@H](NC(=O)[C@H]1CCCCN1C)C(=O)N(C)[C@H](C[C@@H](OC(C)=O)c1nc(C(=O)N[C@@H](Cc2ccccc2)C[C@H](C)C(=O)O)cs1)C(C)C` [Tb1, N^14-desacetoxytubulysin H, reference compound]: the IC50 in data set [1] (Table 2, 72 hours, CellTiter-Glo, read-out: HEK 293T, IC50 Value in nM) is 0.02 nM; in data set [2] (Table 2, 72 hours, CellTiter-Glo, read-out: MES SA, IC50 Value in nM), 0.34 nM; in data set [3] (read-out: MES SA DX, IC50 Value in nM, Table 2, 72 hours, CellTiter-Glo) it was over 10 nM.

Regarding `COC(=O)C12C3C4C1C1C2C3C41NC(=O)c1csc([C@@H](C[C@H](C(C)C)N(C)C(=O)[C@@H](NC(=O)[C@H]2CCCCN2C)C2CC2)OC(C)=O)n1` (stereo partly drawn) [Tb99, Methyl 4-[({2-[(1R,3R)-1-acetoxy-3-{[(2S)-2-cyclopropyl-2-({[(2R)-1-methylpiperidin-2-yl]carbonyl}-amino)acetyl](methyl)amino}-4-methylpentyl]-1,3-thiazol-4-yl}carbonyl)amino]cubane-1-carboxylate], the IC50 in data set [1] (setting [5]), in data set [2] (setting [7]) and in data set [3] (setting [9]) was over 1000 nM in each case.

As to `COC(=O)[C@@H](C)C[C@H](Cc1ccccc1)NC(=O)c1csc([C@@H](C[C@H](C(C)C)N(C)C(=O)[C@H](CC(F)(F)F)NC(=O)[C@H]2CCCCN2C)OC(C)=O)n1` [Tb81, Methyl (2S,4R)-4-[({2-[(1R,3R)-1-acetoxy-4-methyl-3-{methyl[(2S)-4,4,4-trifluoro-2-({[(2R)-1-meth-ylpiperidin-2-yl]carbonyl}amino)butanoyl]amino}pentyl]-1,3-thiazol-4-yl}carbonyl)amino]-2-methyl-5-phenylpentanoate], the concentration for half-maximal inhibition (IC50) in data set [1] (setting [5]) was 4.98 nM; in data set [2] (setting [7]) it was 5.84 nM; in data set [3] (setting [9]), over 1000 nM.

For the compound `COC(=O)[C@@H](C)C[C@H](Cc1ccccc1)NC(=O)c1nc([C@@H](C[C@H](C(C)C)N(C)C(=O)[C@@H](NC(=O)[C@H]2CC(=O)CCN2C)C(C)C)OC(C)=O)sc1C(C)C` [Tb75, Methyl (2S,4R)-4-[({2-[(1R,3R)-1-acetoxy-4-methyl-3-{methyl[(2S)-3-methyl-2-({[(2R)-1-methyl-4-oxopiperidin-2-yl]carbonyl}amino)butanoyl]amino}pentyl]-5-isopropyl-1,3-thiazol-4-yl}carbonyl)-amino]-2-methyl-5-phenylpentanoate], the IC50 in data set [1] (setting [5]) is 127 nM; in data set [2] (setting [7]) it was at least 400 nM; in data set [3] (setting [9]), over 400 nM.

On to `CCCCN1CCCC[C@@H]1C(=O)N[C@H](C(=O)N(C)[C@H](C[C@@H](OC(C)=O)c1nc(C(=O)N[C@@H](Cc2cn(C)c3ccccc23)C[C@H](C)C(=O)OC)cs1)C(C)C)[C@@H](C)CC` [Tb57, Methyl (2S,4R)-4-[({2-[(1R,3R)-1-acetoxy-3-{[(2S,3S)-2-({[(2R)-1-butylpiperidin-2-yl]carbonyl}-amino)-3-methylpentanoyl](methyl)amino}-4-methylpentyl]-1,3-thiazol-4-yl}carbonyl)amino]-2-methyl-5-(1-methyl-1H-indol-3-yl)pentanoate], for which the IC50 in data set [1] (setting [5]), in data set [2] (setting [7]) and in data set [3] (setting [9]) was over 1000 nM throughout.

Regarding `COC(=O)[C@@H](CC(Cc1ccccc1)NC(=O)c1csc([C@@H](CC(C(C)C)N(C)C(=O)[C@@H](NC(=O)[C@H]2CCCCN2C)C(C)C)OC(C)=O)n1)NC(=O)OCc1ccccc1` (stereo in doubt) [Tb115, Methyl(2R,4R)-4-[({2-[(1R,3S)-1-acetoxy-4-methyl-3-{methyl[(2S)-3-methyl-2-{[(1-methylpiperidin-2-yl)carbonyl]amino}butanoyl]amino}pentyl]-1,3-thiazol-4-yl}carbonyl)amino]-2-{[(benzyloxy)carbonyl]amino}-5-phenylpentanoate], the IC50 in data set [1] (setting [4]) came out at 0.01 nM; in data set [1] (setting [5]), 0.01 nM; in data set [2] (setting [6]) it was 0.02 nM; in data set [2] (setting [7]) it was 0.02 nM; in data set [3] (setting [8]) it was 13.8 nM; in data set [3] (setting [9]), 13.8 nM. In addition, the “cytotoxicities” value in data set [3] was “relatively potent (low nanomolar)”.

With `COC(=O)C(CC(Cc1ccccc1)NC(=O)c1csc([C@@H](CC(C(C)C)N(C)C(=O)[C@@H](NC(=O)[C@H]2CCCCN2C)C(C)C)OC(C)=O)n1)NC(=O)OCc1ccccc1` (stereo in doubt) [Tb116, Methyl(2R,4R)-4-[({2-[(1R,3S)-1-acetoxy-4-methyl-3-{methyl[(2S)-3-methyl-2-{[(1-methylpiperidin-2-yl)carbonyl]amino}butanoyl]amino}pentyl]-1,3-thiazol-4-yl}carbonyl)amino]-2-{[(benzyloxy)carbonyl]amino}-5-phenylpentanoate], the IC50 in data set [1] (setting [4]) came to 0.003 nM; in data set [1] (setting [5]), 0.003 nM; in data set [2] (setting [6]), 0.007 nM; in data set [2] (setting [7]) it was 0.007 nM; in data set [3] (setting [8]) it was 6 nM; in data set [3] (setting [9]), 6 nM. The “cytotoxicities” value in data set [3] is “relatively potent (low nanomolar)”.

With `COC(=O)[C@@H](C)C[C@H](Cc1ccccc1)NC(=O)c1nc([C@@H](C[C@H](C(C)C)N(C)C(=O)[C@@H](NC(=O)[C@H]2CCCCN2)C(C)C)OC(C)=O)sc1C` [Tb69, Methyl (2S,4R)-4-[({2-[(1R,3R)-1-acetoxy-4-methyl-3-{methyl[(2S)-3-methyl-2-{[(2R)-piperidin-2-ylcarbonyl]amino}butanoyl]amino}pentyl]-5-methyl-1,3-thiazol-4-yl}carbonyl)amino]-2-methyl-5-phenylpentanoate], the IC50 is over 1000 nM in data set [1] (setting [5]), 30.8 nM in data set [2] (setting [7]) and over 1000 nM in data set [3] (setting [9]).

Take `COC(=O)[C@H](CO)C[C@H](Cc1ccccc1)NC(=O)c1csc([C@@H](C[C@H](C(C)C)N(C)C(=O)[C@@H](NC(=O)[C@H]2CCCCN2C)C(C)C)OC(C)=O)n1` [Tb120, Methyl (2S,4R)-4-{2-[(1R,3R)-1-acetoxy-3-{(S)—N,3-dimethyl-2-[(R)-1-methylpiperidine-2-carboxamido]butanamido}-4-methylpentyl]thiazole-4-carboxamido}-2-(hydroxymethyl)-5-phenylpentanoate]: the IC50 is 0.039 nM in data set [1] (setting [4]); 0.039 nM in data set [1] (setting [5]); 0.059 nM in data set [2] (setting [6]); 0.059 nM in data set [2] (setting [7]); over 14 nM in data set [3] (setting [8]); over 14 nM in data set [3] (setting [9]).

Regarding `COC(=O)[C@@H](C)C[C@H](Cc1ccccc1)NC(=O)c1csc(CC[C@H](C(C)C)N(C)C(=O)[C@@H](NC(=O)[C@H]2CCCCN2C)C(C)C)n1` [PTb-D48], the IC50 in data set [1] (setting [5]), in data set [2] (setting [7]) and in data set [3] (setting [9]) was over 1000 nM each time.
